Source: patent US20240174622A1, “COMPOUND AND RADIOACTIVE LABELING COMPOUND” (NIHON MEDI-PHYSICS CO., LTD., priority 2021, published 2024)

Legend:
PC-3 tumor = assay: SPECT/CT, PC-3 tumor in mouse transplanted with LNCaP and PC-3; type: in vivo; settings: 24 (and 48) hours after administration
Procedure: LNCaP cells (1.0×10^7 cells/mouse) were suspended in a mixture of PBS and Matrigel (1:1, 150 μL) and subcutaneously transplanted to the right shoulder of a male CB17/IcrJcl-Prkdc^scid mouse kept in the same manner as in Example 1-1 under isoflurane anesthesia. In addition, a suspension of PC-3 cells (1.0×10^7 cells/mouse) in a mixture of PBS and Matrigel (1:1, 150 μL) was subcutaneously transplanted into the left shoulder of the same mouse under isoflurane anesthesia. Thereafter, the mouse was kept for 40 to 60 days. In this way, a tumor-transplanted mouse in which LNCaP cells and PC-3 cells were simultaneously transplanted into one mouse was obtained. The tumor-transplanted mouse was then administered saline solution (2.7 MBq, 100 μL) of [^111In]In-PtDA from the tail vein. SPECT/CT was performed 24 and 48 hours after administration with FX3300 pre-clinical imaging system, which is manufactured by Gamma Medica-Ideas. Imaging was performed using a pinhole collimator with a diameter of 1.0 mm at a rotation radius of 35 mm, a projection time of 70 seconds, and the number of projections of 32 times under isoflurane anesthesia. After SPECT, CT (Tube voltage: 60 kV, Tube current: 350 μA) was performed. Image reconstruction was performed on the projection data of SPECT through three-dimensional ordered subset expectation maximization method (8 subsets, 5 iterations). […]

[1] = test system: PC-3 cells (PSMA-negative, human prostate cancer); assay: Binding assay using cultured cells (PC-3); type: cell-based; settings: 37° C., 1 hour
Procedure: LNCaP cells (PSMA-positive, human prostate cancer) and PC-3 cells (PSMA-negative, human prostate cancer) were used. These cells were purchased from American Type Culture Collection and DS Biomedical, respectively. Each of the cells were cultured in RPMI 1640, which is manufactured by NACALAI TESQUE, INC. and contains antibiotics (penicillin and streptomycin) and 10% inactivated fetal bovine serum, at 37° C. under 5% CO2.
The LNCaP cells and PC-3 cells were each seeded on a 12 well plate at 4.0×10^5 cells/well, and left standing at 37° C. under 5% CO2 for 48 hours.
The culture medium was removed, and an assay medium (0.5% FBS-containing RPMI 1640 medium) solution (1 mL) containing [^111In]In-PSMA-DA1 or [^111In]In-PSMA-DB (37 kBq) was added. Thereafter, the plate was allowed to stand at 37° C. under 5% CO2 for 1 hour. […]
The radioactivity for each of the assay medium and the cell lysate was measured with a gamma counter. Separately, the total protein concentration in the cell lysate was calculated using BCA Protein Assay Kit, which is manufactured by Thermo Fisher Scientific K.K. The value (% ID/mg protein) obtained by dividing the percentage (% ID) of the sample's radioactivity amount to the added radioactivity amount by the total protein amount was calculated for each sample. […]

[2] = Evaluation of distribution coefficient (1-octanol/PBS); type: physicochemical; settings: 1-octanol / PBS pH 7.4
Procedure: [^111In]In-PtDA (111 kBq) was added to a mixture of PBS (pH 7.4, 3 mL) and 1-octanol (3 mL), and the mixture was dispersed by vortexing for 2 minutes and then centrifuged at 4000×g for 5 minutes. 1 mL was recovered respectively from the 1-octanol layer and the PBS layer, and the radioactivity of each layer was measured with a gamma counter (n=3).
As the calculation formula, “(Distribution coefficient)=Log10[(radioactivity of 1-octanol layer [kBq])/(radioactivity of PBS layer [kBq])]” was used.

[3] = Evaluation of stability in plasma; type: in vitro ADME; settings: 37° C., 24 hours
Procedure: A saline (20 μL) solution of [^111In]In-PSMA-DA1 (370 kBq) or [^90Y]Y-PSMA-DA1 (3.7 MBq) was added to mouse plasma (200 μL), and the mixture was allowed to stand at 37° C. for 24 hours (n=3). Then, MeCN (200 μL) was added, and the mixture was centrifuged at 10,000×g for 5 minutes. The supernatant was filtered, and the filtrate was analyzed by reverse phase HPLC under the following conditions.
(Analytical conditions: Cosmosil 5C18-PAQ column (4.6×250 mm); mobile phase: MeCN/H2O/TFA [20/80/0.1 (0 min) to 50/50/0.1 (30 min)]; flow rate: 1 mL/min.)
A saline (20 μL) solution of [^111In]In-PtDA (259 kBq) was added to mouse plasma (200 μL), and the mixture was allowed to stand at 37° C. for 24 hours (n=3). MeCN (400 μL) was added thereto, and the mixture was centrifuged at 10,000×g for 5 minutes. The supernatant was filtered, and the filtrate was analyzed by reverse phase HPLC under the following conditions.
Analytical conditions: Cosmosil 5C18-AR-II column (4.6×150 mm); mobile phase: MeCN/H2O/TFA [10/90/0.1 (0 min) to 70/30/0.1 (30 min)]; flow rate: 1 mL/min.

radioactivity signal in the PC-3 tumor in SPECT/CT (PC-3 tumor)	Log P (distribution coefficient) [2]	stably present in mouse plasma [3] [%]	SMILES	binding to PC-3 cells [1] [% ID/mg protein]
hardly observed	–	–	O=C([O-])CN(Cc1cccc(C(=O)[O-])n1)C[C@H](Cc1ccc(NC(=O)[C@H](CCCCNC(=O)CCC(=O)NCCCC[C@H](NC(=O)N[C@@H](CCC(=O)O)C(=O)O)C(=O)O)NC(=O)CCCc2ccc(I)cc2)cc1)N(CC(=O)[O-])Cc1cccc(C(=O)[O-])n1.[111In+3] [[^111In]In-Octapa-2]	–
almost no radioactive signal	−3.08±0.02	≥ 95	O=C([O-])CN1CCN(C(CCC(=O)NCCC(=O)N2Cc3ccccc3-c3c(nnn3CCOCCOCCOCCOCCC(=O)NCCCC[C@H](NC(=O)N[C@@H](CCC(=O)O)C(=O)O)C(=O)O)-c3ccccc32)C(=O)[O-])CCN(CC(=O)[O-])CCN(C(CCC(=O)N[C@@H](CCCCNC(=O)CCCc2ccc(I)cc2)C(=O)O)C(=O)[O-])CC1.[111In+3] (some centres unmarked) [[^111In]In-PtDA]	0.15
